Results reported in US12104201B2, “Engineered gyri-like mutein aptamers, and related methods” (CROSSLIFE TECHNOLOGIES INC., priority 2019, dated 2024).
Positions count from the first letter of the chain named. Names may count otherwise. “Also recorded” adds a separate entry of the source. Where two headings read alike, the source gives them in different places.

What was measured:
[1] = target: T1, CTR107 WT (C. tepidium Gyrl-like protein, wild type, SEQ ID NO:4) (Chlorobaculum tepidum, UniProt Q8KFZ1); test: biochemical; format: binding; conditions: for Kd: read-out: dissociation constant
T1 construct: begins […]

[2] = target: T2, LIN2189 WT (L. innocua Gyrl-like protein, wild type, SEQ ID NO:6) (Listeria innocua, UniProt Q929T5); test: Fluorescence binding assay (enhancement/quenching of dye fluorescence)
T2 construct: recombinant, purified
T2 sequence (Q929T5 with tags, fused parts or gaps): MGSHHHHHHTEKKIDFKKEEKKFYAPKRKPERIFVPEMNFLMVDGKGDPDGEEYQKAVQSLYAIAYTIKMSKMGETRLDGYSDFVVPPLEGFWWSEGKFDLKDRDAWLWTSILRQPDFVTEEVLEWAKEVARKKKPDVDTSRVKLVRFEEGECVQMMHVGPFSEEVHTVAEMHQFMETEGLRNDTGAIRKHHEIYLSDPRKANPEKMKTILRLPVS
Description: Fluorescence Binding Assay
CTR107 when added at 10 μM induced a 10-fold increase in DFHBI fluorescence (FIG. 6A).
Malachite Green fluoresces in the far-red regions when stimulated by binding aptamers, therefore we monitored its fluorescence emission at 665-720 nm after exciting at 635 nm.
Thioflavin T is a benzothiazole dye that has also been used in many fluorescence applications. […] The Corn aptamer is able to bind to two Thioflavin T molecules at a homodimer interface formed by G-quadruplexes. We tested whether Gyrl-like proteins could function as fluorescence enhancement aptamers of Thioflavin T. Thioflavin T has excitation and emission maxima of […], respectively. We probed the fluorescence enhancing properties of SAV2435, CTR107 and LIN2189 variants on Thioflavin T (FIG. 8). […] All other variants display either a small 4-6 fold increase or no increase in Thioflavin T fluorescence.

[3] = target: T3, SAV2435 WT (S. aureus Gyrl-like protein, wild type, SEQ ID NO:2) (Staphylococcus aureus, UniProt A0A0H3K0Y5); format: binding
T3 construct: listing organism Escherichia coli is only the host

[4] = target: T4, C. tepidium CTR107 variant Y106W (SEQ ID NO:20) (Chlorobaculum tepidum, UniProt Q8KFZ1, Y106W); test: biochemical; format: binding
T4 sequence (Q8KFZ1 with tags, fused parts or gaps Y106W): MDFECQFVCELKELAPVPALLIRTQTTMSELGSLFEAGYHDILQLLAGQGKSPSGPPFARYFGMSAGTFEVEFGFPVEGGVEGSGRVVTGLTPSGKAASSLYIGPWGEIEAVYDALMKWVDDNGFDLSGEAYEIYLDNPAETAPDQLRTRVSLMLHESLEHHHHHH

[5] = test system: C. tepidium CTR107 variant Y106W (SEQ ID NO:20); test: biochemical; format: binding
[6] = target: S. aureus SAV2435 variant Y137W (SEQ ID NO:16) (Staphylococcus aureus, UniProt A0A0H3K0Y5, V105W/Y137W); format: binding; conditions: Oxazine 170
[7] = target: S. aureus SAV2435 variant V105W (SEQ ID NO:10) (Staphylococcus aureus, UniProt A0A0H3K0Y5, V105W); format: binding
[8] = target: S. aureus SAV2435 variant P106W (SEQ ID NO:12) (Staphylococcus aureus, UniProt A0A0H3K0Y5, P106W); format: binding
[9] = target: S. aureus SAV2435 variant N27W (SEQ ID NO:8) (Staphylococcus aureus, UniProt A0A0H3K0Y5, Q27W); format: binding; conditions: Oxazine 170
[10] = target: S. aureus SAV2435 variant E135Q (SEQ ID NO:14) (Staphylococcus aureus, UniProt A0A0H3K0Y5, E135Q/V105W); format: binding; conditions: Oxazine 170
[11] = target: C. tepidium CTR107 variant E36R (SEQ ID NO:18) (Chlorobaculum tepidum, UniProt Q8KFZ1, E36R); format: binding; conditions: 500 nM SYTO9
[12] = target: T5, C. tepidium CTR107 variant E133Q (SEQ ID NO:22) (Chlorobaculum tepidum, UniProt Q8KFZ1, E133Q); format: binding; conditions: 500 nM SYTO9
T5 sequence (Q8KFZ1 with tags, fused parts or gaps E133Q): T4 sequence (Q8KFZ1 with tags, fused parts or gaps Y106W) with W106Y, E133Q

[13] = test system: TAMRA-DNA; test: TAMRA-labeled DNA fluorescence quenching assay; conditions: 5 nM protein
[14] = FAM fluorescence quenching assay; format: biochemical; conditions: 1 μM FAM, saturating protein
Source text: The fluorescence enhancing or quenching properties of Gyrl-like proteins can be used as a tool for identifying aptamers for target organic compounds. Building on Examples 1-8 we designed a protocol for identifying aptamers that bind to fluorescent dyes 5(6)-Carboxyfluorescein (FAM) and 5-Carboxytetramethylrhodamine (TAMRA) (FIG. 4). Both dyes are similar in structure and fluorescence in the green and red regions, respectively. The binding of FAM and TAMRA by Gyrl-like variant aptamers will result in enhancement or quenching of fluorescence. The invention method starts with screening our 3-selected wildtype Gyrl-like proteins to determine which can alter the fluorescence of FAM in solution (FIG. 11A).

[15] = pH stability of Thiazole Orange fluorescence module
[16] = Acridine Orange fluorescence assay; conditions: 500 nM Acridine Orange
[17] = UV fluorescence quenching of Oxazine 170 and reversibility; conditions: UV light
[18] = 500 nM Malachite Green, 10 μM protein, ex 635 nm, em 665-720 nm
[19] = 500 nM Oxazine 170, saturating protein
[20] = 100 nM Oxazine 170, 100 nM protein
[21] = 1 μM Thiazole Orange, saturating protein
[22] = 1 μM SYTO9, 10 μM protein, em 665-720 nm
[23] = 1 μM SYTO9, 10 μM protein, ex 470 nm, em 510-580 nm

T1 sequence (Q8KFZ1 entry or part of it): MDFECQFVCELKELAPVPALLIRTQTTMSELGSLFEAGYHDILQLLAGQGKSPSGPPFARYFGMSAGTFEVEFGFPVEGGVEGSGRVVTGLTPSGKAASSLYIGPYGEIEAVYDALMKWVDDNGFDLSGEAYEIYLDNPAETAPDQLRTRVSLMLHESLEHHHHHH
C. tepidium CTR107 variant E36R (SEQ ID NO:18), sequence (Q8KFZ1 entry or part of it E36R): as the sequence (Q8KFZ1 entry or part of it) above, with E36R counted along it

In the case of `CC1=N/C(=C\c2cc(F)c(O)c(F)c2)C(=O)N1C` [DFHBI], the increase in fluorescence ([1]; DFHBI, 10 μM protein) is reported as 10 fold, the effect on fluorescence ([2]; 500 nM DFHBI) is reported as “no effect on fluorescence” and the “increase in fluorescence (green channel)” value ([3]; 500 nM DFHBI, 10 μM protein) is reported as 20 fold.

In the case of `COc1cccc2c1C(=O)c1c(O)c3c(c(O)c1C2=O)C[C@@](O)(C(C)=O)C[C@@H]3O[C@H]1C[C@H](N)[C@H](O)[C@H](C)O1` [Daunorubicin], the Kd [4] is reported as 42 nM, the “fluorescence decrease (green channel)” value ([4]; 50 μM daunorubicin) is reported as 3 fold and the “increase in binding affinity compared to wildtype CTR107” value ([5]; Daunorubicin) is reported as “approximately 100 fold”. For the same molecule, the “fluorescence decrease (green channel)” value ([1]; 50 μM daunorubicin) was “greater than 2 fold” and the Kd ([1]; Daunorubicin, nonlinear regression, Hill equation) was 4000 nM.

For `CN(C)c1ccc(C(=C2C=CC(=[N+](C)C)C=C2)c2ccccc2)cc1` [Malachite Green], the “increase in fluorescence (red channel)” value [1, 18] was 18 fold, the “effect on fluorescence enhancement” value ([2]; 500 nM Malachite Green) was “no effect on fluorescence enhancement” and the “increase in fluorescence (red channel)” value [3, 18] was 10 fold.

For `CCN=c1cc2oc3cc(NCC)c(C)cc3nc-2c2ccccc12` [Oxazine 170], the decrease in fluorescence ([4]; Oxazine 170) was 47 fold, the “quenching potency relative to CTR107 WT” value ([5]; Oxazine 170) was 5 fold and the quenching effect [6] was “small decrease”. For the same molecule, the “reduction in fluorescence (red channel)” value [1, 19] was 6 fold, the “fluorescence decrease at 100 nM protein” value [7, 20] was 60% and the “fluorescence decrease at 100 nM protein” value [8, 20] was 60%. For the same molecule, the reduction in fluorescence [9] was 529 fold, the shut-off of fluorescence [9] was about 100% and the “protein concentration for 50% quenching” value ([3]; 100 nM Oxazine 170) was 10 to 50 nM. For the same molecule, the “fluorescence shut-off at 100 nM protein” value [3, 20] was about 100%, the “decrease in fluorescence (red channel)” value [3, 19] was 303 fold and the shut-off of fluorescence [3, 19] was about 100%. The reduction in fluorescence [10] was 303 fold and the shut-off of fluorescence [10] was about 100%.

For `CN1C(=Cc2cc[n+](C)c3ccccc23)Sc2ccccc21` [Thiazole Orange], the “fluorescence enhancement (green channel)” value ([4]; Thiazole Orange) was 13 fold, the “fluorescence enhancement (red channel)” value ([4]; Thiazole Orange) was 20 fold and the effect on fluorescence [1, 21] was “no effects; also recorded: no enhancement”. For the same molecule, the “fluorescence enhancement vs. dye alone (red channel)” value ([7]; Thiazole Orange) was 50 fold, the “enhancement relative to wildtype” value ([7]; Thiazole Orange, vs SAV2435 WT) was 3 fold and the “fluorescence enhancement vs. dye alone (red channel)” value ([8]; Thiazole Orange) was 50 fold. The “enhancement relative to wildtype” value ([8]; Thiazole Orange, vs SAV2435 WT) was 3 fold, the effect on fluorescence [2, 21] was “no effects” and the “increase in fluorescence (green channel)” value [3, 21] was 50 fold. The “increase in fluorescence (red channel)” value [3, 21] was 5 fold and the “fluorescence increase (channel not stated)” value ([3]; Thiazole Orange) was 20 fold.

With `Cc1ccc2c(c1)sc(-c1ccc(N(C)C)cc1)[n+]2C` [Thioflavin T] the “fluorescence enhancement (green and red channel)” value ([1]; Thioflavin T) was 50 fold, the “fluorescence enhancement (green channel)” value ([2]; Thioflavin T) was 13 fold and the “fluorescence enhancement (red channel)” value ([2]; Thioflavin T) was 50 fold.

With SYTO9 the “fluorescence enhancement (green channel)” value ([4]; 500 nM SYTO9) was 115 fold, the “fluorescence enhancement (red channel)” value ([4]; 500 nM SYTO9) was 19 fold and the “fluorescence enhancement (red channel)” value [1, 22] was 33 fold. The “fluorescence enhancement (green channel)” value [1, 23] was 84 fold, the Kd ([1]; SYTO9, estimated, fluorescence enhancement vs. protein concentration, Hill fit) was 302 nM and the “fluorescence enhancement compared to wildtype CTR107” value [11] was “weaker enhancement than wildtype”. For the same molecule, the “fluorescence enhancement (green channel)” value [12] was 157 fold, the “fluorescence enhancement (red channel)” value [12] was 55 fold and the “fluorescence enhancement (red and green channel)” value ([2]; SYTO9) was “small enhancement”. For the same molecule, the “fluorescence enhancement (red channel)” value [3, 22] was 11 fold and the “fluorescence enhancement (green channel)” value [3, 23] was 21 fold.

B1: LIN2189 E157A: LIN2189 variant aptamer, SEQ ID NO:28 (protein, listed as Escherichia coli)
chain: T2 sequence (Q929T5 with tags, fused parts or gaps) with E165A
For B1, the “effect on 100 nM TAMRA-DNA fluorescence” value [13] was “no effects on TAMRA fluorescence” and the “decrease in FAM fluorescence” value [14] was “no changes in fluorescence quenching compared to LIN2189 WT”.

B2: SAV2435 P106W: SAV2435 variant aptamer, SEQ ID NO:12 (protein, listed as Escherichia coli)
chain: MEYQLQQLASLTLVGIKETYENGRQAQQHIAGFWQRCYQEGVIADLQLKNNGDLAGILGLCIPELDGKMSYMIAVTGDNSADIAKYDVITLASSKYMVFEAQGAVWKAVQQKMEEVHHYIHQYQANTVKSAPFFELYQDGDTTSEKYITEIWMPVKGLEHHHHHH
In the case of B2, the “decrease in Thiazole Orange fluorescence under acidic conditions” value ([15]; pH 3) is reported as 2 fold, the “stability of Thiazole Orange fluorescence under basic conditions” value ([15]; pH 11) is reported as “slightly more stable than acidic” and the “Acridine Orange fluorescence increase” value [16] is reported as “doubled the fluorescence intensity”.

B3: SAV2435 E135Q: SAV2435 variant aptamer, SEQ ID NO:14 (protein, listed as Escherichia coli)
chain: B2 chain with V105W, W106P, E135Q
For B3, the “Acridine Orange fluorescence increase” value [16] was “doubled the fluorescence intensity”.

B4: SAV2435 Y137W: SAV2435 variant aptamer, SEQ ID NO:16 (protein, listed as Escherichia coli)
chain: B2 chain with V105W, W106P, Y137W
With B4 the “shut-off of Oxazine 170 red UV fluorescence” value [17] was “non-quencher”.
